Columns and labels:
[1] = test system: six microorganisms (bacteria, yeast, fungus); format: cell-based
mice = conditions: mouse, in vivo, ip; cited from earlier work

Row | SMILES | antimicrobial activity against yeast and fungi [1] | LD50 (mice)
1 | OCCOc1ccccc1 [Combination 2-PE, 2-Phenoxyethanol] | weaker antimicrobial activity than Thiomersal | –
2 | COC(=O)c1ccc(O)cc1 [methyl paraben] | – | 1000 mg/kg

From patent US12090195B2 (priority 2018, dated 2024)
